Assay results: patent US20090042915A1, “PREVENTIVE OR THERAPEUTIC AGENT FOR HERPESVIRUS-RELEATED DISEASE” (ASTELLAS PHARMA INC., priority 2005, published 2009)

Legend:
HSV-1 strain WT-51 = experiment: HSV-1 skin infection mouse model (in vivo test); parameters: species or system HR-1 hairless mouse; conditions: for Lesion inhibitory ratio (%): oral twice a day for 5 days
Experimental: Using a cutaneous HSV-1 infection mouse model prepared in accordance with the method of H. Machida et al. (Antiviral Res., 1992, 17, 133-143), in vivo activity of the pharmaceutical composition of the present invention was tested. The skin of each HR-1 hairless mouse [female, 7 weeks of age] was scratched lengthwise and breadthwise several times using a needle and a virus suspension (HSV-1 strain WT-51, 1.5×10^4 PFU/15 μl) was dropped to the scarified region for infection, while anesthetized with diethyl ether.
Regarding the compounds to be tested, VCV was used as the polymerase inhibitor and made into a methyl cellulose suspension, the compound of Preparation 2, N-(4-methylphenyl)-N-(2-{[4-(1,3-oxazol-4-yl)phenyl]amino}-2-oxoethyl)tetrahydro-2H-thiopyran-4-carboxamide 1,1-dioxide, which is described later, was used as the helicase-primase inhibitor and made into a methyl cellulose suspension, and they were orally administered at the doses of the following table twice a day for 5 days starting after 3 hours of the infection. The symptom of the skin lesion caused by HSV-1 infection were classified in the following scores for 17 days:
Score 0: no signs of infection.
Score 1: localized, barely perceptible small vesicles.
Score 2: slight vesicle spread.
Score 3: large patches of vesicles formed.
Score 4: zosteriform vesicles.
Score 5: large patches of ulcers formed.
Score 6: zosteriform with severe large ulcers.
Score 7: hind limb paralysis or death.
The AUC value was calculated from each group's mean disease score, and the disease inhibitory rate of the group administered with each test compound to the placebo group was calculated using the AUC.
In the same manner as described in the above, VCV was used as the polymerase inhibitor and the compound of Preparation 27, N-(2,6-dimethylphenyl)-N-(2-{[4-(1,2,4-oxadiazol-3-yl)phenyl]amino}-2-oxoethyl)tetrahydro-2H-thiopyran-4-carboxamide 1,1-dioxide, which is described later, was used as the helicase-primase inhibitor, with the results shown in the following table.

[1] = target: T1, HSV-1 helicase-primase complex (Human herpesvirus 1, UniProt P10189+P10236); experiment: Helicase-primase inhibitory activity (DNA-dependent ATPase activity, Malachite Green); format: biochemical
T1 construct: made in house; host or cells: Baculovirus expression; The baculoviruses came from Dr. Nigel D. Stow (MRC, UK)
Experimental: Using an Baculoviruses for expressing respective proteins of UL5, UL52 and UL8 which constitute an HSV-1 helicase-primase complex (obtained from Dr. Nigel D. Stow, Medical Research Council, UK), a recombinant HSV-1 helicase-primase complex was prepared by the method described in a report of Crute et al. (J. B. C., 1991, Vol. 266, p. 21252-21256). Detection of DNA-dependent ATPase activity of the HSV-1 helicase-primase complex was carried out in reference to the method described in a report of Crute et al. (J. B. C., 1991, Vol. 266, p. 4484-4488). In brief, 520 ng of the HSV-1 helicase-primase complex was allowed to undergo the reaction at 30° C. for 30 minutes in a reaction liquid containing 20 μg/ml of heat-denatured bovine sperm DNA and 2 mM ATP, and then concentration of phosphoric acid formed through the hydrolysis of ATP into ADP and monophosphate by the activity of ATPase was determined by adding the same volume of Malachite Green reagent (0.03% Malachite Green, 0.1% ammonium molybdate, 4.8% sulfuric acid) and measuring the resulting absorbance at 650 nm. The 50% inhibition concentration (IC50 value) of each compound to be tested for HSV-1 helicase-primase DNA-dependent ATPase was calculated as the concentration which halves the phosphoric acid concentration at the time of not adding the compound.

T1 sequence (P10236 whole entry): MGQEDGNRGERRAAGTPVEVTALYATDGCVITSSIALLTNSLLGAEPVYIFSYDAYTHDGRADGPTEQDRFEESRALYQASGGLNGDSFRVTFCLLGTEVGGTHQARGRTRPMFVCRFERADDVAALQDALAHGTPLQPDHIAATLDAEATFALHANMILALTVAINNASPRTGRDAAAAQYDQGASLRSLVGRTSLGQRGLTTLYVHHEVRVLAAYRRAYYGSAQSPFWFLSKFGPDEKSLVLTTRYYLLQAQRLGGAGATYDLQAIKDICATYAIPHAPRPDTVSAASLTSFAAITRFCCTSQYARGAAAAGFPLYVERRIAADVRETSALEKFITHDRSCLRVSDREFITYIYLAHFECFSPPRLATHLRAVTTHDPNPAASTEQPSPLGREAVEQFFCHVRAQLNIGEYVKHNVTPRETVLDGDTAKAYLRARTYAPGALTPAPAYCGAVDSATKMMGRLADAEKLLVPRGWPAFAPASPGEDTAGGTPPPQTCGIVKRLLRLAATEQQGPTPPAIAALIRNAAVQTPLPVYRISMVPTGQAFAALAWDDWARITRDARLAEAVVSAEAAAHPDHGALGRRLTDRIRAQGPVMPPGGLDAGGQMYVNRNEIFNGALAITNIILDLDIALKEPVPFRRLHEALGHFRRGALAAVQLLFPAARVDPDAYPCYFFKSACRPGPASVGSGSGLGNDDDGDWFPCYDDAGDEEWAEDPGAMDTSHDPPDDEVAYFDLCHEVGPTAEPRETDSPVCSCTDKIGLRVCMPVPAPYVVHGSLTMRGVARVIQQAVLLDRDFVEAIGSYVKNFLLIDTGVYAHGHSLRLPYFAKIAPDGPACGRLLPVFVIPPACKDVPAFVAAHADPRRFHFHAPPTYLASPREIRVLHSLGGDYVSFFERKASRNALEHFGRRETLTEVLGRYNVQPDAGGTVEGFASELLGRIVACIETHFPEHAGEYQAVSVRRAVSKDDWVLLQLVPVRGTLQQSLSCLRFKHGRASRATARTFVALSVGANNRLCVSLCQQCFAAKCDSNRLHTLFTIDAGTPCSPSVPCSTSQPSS
T1 sequence (P10192 whole entry, further chain): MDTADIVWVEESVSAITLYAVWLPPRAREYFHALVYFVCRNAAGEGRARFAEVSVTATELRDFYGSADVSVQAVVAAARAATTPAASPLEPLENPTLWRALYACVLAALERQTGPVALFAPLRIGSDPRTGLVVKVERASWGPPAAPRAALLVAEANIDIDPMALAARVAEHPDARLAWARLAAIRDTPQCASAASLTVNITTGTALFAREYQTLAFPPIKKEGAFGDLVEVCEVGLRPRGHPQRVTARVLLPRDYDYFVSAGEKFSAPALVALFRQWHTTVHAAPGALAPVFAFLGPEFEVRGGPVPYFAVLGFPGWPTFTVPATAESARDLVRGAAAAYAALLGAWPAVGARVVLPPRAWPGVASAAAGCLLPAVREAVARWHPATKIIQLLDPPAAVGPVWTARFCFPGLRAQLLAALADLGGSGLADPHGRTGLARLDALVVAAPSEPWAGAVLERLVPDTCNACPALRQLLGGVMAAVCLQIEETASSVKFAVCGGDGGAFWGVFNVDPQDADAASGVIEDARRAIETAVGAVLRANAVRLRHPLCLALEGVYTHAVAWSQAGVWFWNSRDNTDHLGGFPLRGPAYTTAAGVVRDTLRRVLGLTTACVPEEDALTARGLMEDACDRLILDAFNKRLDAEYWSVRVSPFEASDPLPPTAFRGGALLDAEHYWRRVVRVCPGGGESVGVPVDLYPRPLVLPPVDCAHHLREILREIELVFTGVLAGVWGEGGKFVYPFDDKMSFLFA
T1 sequence (P10189 whole entry): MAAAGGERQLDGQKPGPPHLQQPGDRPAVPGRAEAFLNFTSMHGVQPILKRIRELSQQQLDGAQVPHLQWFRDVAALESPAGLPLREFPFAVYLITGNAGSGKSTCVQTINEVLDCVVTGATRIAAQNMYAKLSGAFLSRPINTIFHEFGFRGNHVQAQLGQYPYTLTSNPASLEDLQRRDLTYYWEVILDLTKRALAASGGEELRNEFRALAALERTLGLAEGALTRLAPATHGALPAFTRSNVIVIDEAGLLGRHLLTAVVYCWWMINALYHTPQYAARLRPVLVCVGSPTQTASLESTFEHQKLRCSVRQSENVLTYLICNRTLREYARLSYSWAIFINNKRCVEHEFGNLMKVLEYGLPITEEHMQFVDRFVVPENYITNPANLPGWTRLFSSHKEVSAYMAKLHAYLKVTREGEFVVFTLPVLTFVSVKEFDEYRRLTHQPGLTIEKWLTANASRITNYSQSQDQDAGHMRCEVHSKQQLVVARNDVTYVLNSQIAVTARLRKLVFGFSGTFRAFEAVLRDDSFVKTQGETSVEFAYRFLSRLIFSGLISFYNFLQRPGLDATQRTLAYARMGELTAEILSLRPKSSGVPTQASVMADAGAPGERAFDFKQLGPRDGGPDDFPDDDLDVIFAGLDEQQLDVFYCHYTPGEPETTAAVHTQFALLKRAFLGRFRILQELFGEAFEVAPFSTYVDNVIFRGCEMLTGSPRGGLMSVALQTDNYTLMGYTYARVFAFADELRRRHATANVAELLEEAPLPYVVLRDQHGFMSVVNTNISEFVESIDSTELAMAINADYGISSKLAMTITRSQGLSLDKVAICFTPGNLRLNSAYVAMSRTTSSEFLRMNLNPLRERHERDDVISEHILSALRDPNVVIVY

Cc1cccc(C)c1N(CC(=O)Nc1ccc(-c2ncon2)cc1)C(=O)C1CCS(=O)(=O)CC1 [Preparation 27, N-(2,6-dimethylphenyl)-N-(2-{[4-(1,2,4-oxadiazol-3-yl)phenyl]amino}-2-oxoethyl)tetrahydro-2H-thiopyran-4-carboxamide 1,1-dioxide]
Lesion inhibitory ratio (%) (HSV-1 strain WT-51; Table 3, compound of Preparation 27 1 mg/kg, VCV 0 mg/kg): 33% | Lesion inhibitory ratio (%) (HSV-1 strain WT-51; Table 3, compound of Preparation 27 3 mg/kg, VCV 0 mg/kg): 68% | Lesion inhibitory ratio (%) (HSV-1 strain WT-51; Table 3, concomitant use: VCV 10 mg/kg + compound of Preparation 27 1 mg/kg): 66% | Lesion inhibitory ratio (%) (HSV-1 strain WT-51; Table 3, concomitant use: VCV 10 mg/kg + compound of Preparation 27 3 mg/kg): 86% | Lesion inhibitory ratio (%) (HSV-1 strain WT-51; Table 3, concomitant use: VCV 30 mg/kg + compound of Preparation 27 1 mg/kg): 88% | Lesion inhibitory ratio (%) (HSV-1 strain WT-51; Table 3, concomitant use: VCV 30 mg/kg + compound of Preparation 27 3 mg/kg): 100% | lesion inhibitory activity (in words) (HSV-1 strain WT-51; concomitant use groups VCV 10 mg/kg + 3 mg/kg, VCV 30 mg/kg + 1 mg/kg, VCV 30 mg/kg + 3 mg/kg of the compound of Preparation 27, compared with VCV single administration): good lesion inhibitory activity in comparison with the VCV single administration group | inhibition of the lesions (in words) (HSV-1 strain WT-51; concomitant use of 30 mg/kg of VCV with 3 mg/kg of the compound of Preparation 27): completely inhibited the lesions | IC50 [1]: 110 nM

CC(C)[C@H](N)C(=O)OCCOCn1cnc2c(=O)[nH]c(N)nc21 [VCV, valacyclovir, reference compound]
Lesion inhibitory ratio (%) (HSV-1 strain WT-51; Table 2, VCV 10 mg/kg alone): 45% | Lesion inhibitory ratio (%) (HSV-1 strain WT-51; Table 2, VCV 30 mg/kg alone): 57% | Lesion inhibitory ratio (%) (HSV-1 strain WT-51; Table 3, VCV 10 mg/kg alone): 42% | Lesion inhibitory ratio (%) (HSV-1 strain WT-51; Table 3, VCV 30 mg/kg alone): 52%

Cc1ccc(N(CC(=O)Nc2ccc(-c3cocn3)cc2)C(=O)C2CCS(=O)(=O)CC2)cc1 [Preparation 2, N-(4-methylphenyl)-N-(2-{[4-(1,3-oxazol-4-yl)phenyl]amino}-2-oxoethyl)tetrahydro-2H-thiopyran-4-carboxamide 1,1-dioxide]
Lesion inhibitory ratio (%) (HSV-1 strain WT-51; Table 2, compound of Preparation 2 1 mg/kg, VCV 0 mg/kg, AUC of disease score over 17 days vs placebo): 38% | Lesion inhibitory ratio (%) (HSV-1 strain WT-51; Table 2, compound of Preparation 2 3 mg/kg, VCV 0 mg/kg): 52% | Lesion inhibitory ratio (%) (HSV-1 strain WT-51; Table 2, concomitant use: VCV 10 mg/kg + compound of Preparation 2 1 mg/kg): 76% | Lesion inhibitory ratio (%) (HSV-1 strain WT-51; Table 2, concomitant use: VCV 10 mg/kg + compound of Preparation 2 3 mg/kg): 83% | Lesion inhibitory ratio (%) (HSV-1 strain WT-51; Table 2, concomitant use: VCV 30 mg/kg + compound of Preparation 2 1 mg/kg): 86% | Lesion inhibitory ratio (%) (HSV-1 strain WT-51; Table 2, concomitant use: VCV 30 mg/kg + compound of Preparation 2 3 mg/kg): 91% | lesion inhibitory activity (in words) (HSV-1 strain WT-51; concomitant use group of VCV with the compound of Preparation 2, compared with VCV single administration): good lesion inhibitory activity in comparison with the VCV single administration group | inhibition of the lesions (in words) (HSV-1 strain WT-51; concomitant use of 30 mg/kg of VCV with 3 mg/kg of the compound of Preparation 2): almost completely inhibited the lesions | IC50 [1]: 84 nM
